The record followed here is ChEMBL document CHEMBL2407067, “Pyridone-conjugated monobactam antibiotics with gram-negative activity” (J Med Chem, 2013).

Values after ≈ are worked out from the molar mass of the structure shown.

Test [1] concerns Pseudomonas aeruginosa. Nature of the test: Antibacterial activity against Pseudomonas aeruginosa from cystic fibrosis patients by broth microdilution method. The class given is functional.
Test [2] deals with Acinetobacter sp. Nature of the test: Antibacterial activity against Acinetobacter spp. by broth microdilution method. Format: functional. For orientation: Dilution methods test growth across graded concentrations, often in twofold steps.
Test [3] deals with Escherichia coli. As to the kind of experiment: Antibacterial activity against Escherichia coli expressing defined beta-lactamase by broth microdilution method. The class given is functional.
Test [4] has as its system Escherichia coli. As to the kind of experiment: Antibacterial activity against Escherichia coli expressing CTX-M by broth microdilution method. The class given is functional.
The subject of test [5] is Escherichia coli. Nature of the test: Antibacterial activity against Escherichia coli expressing ESBL by broth microdilution method. The class given is functional.
In test [6] the test system is Klebsiella pneumoniae. Nature of the test: Antibacterial activity against Klebsiella pneumoniae expressing KPC by broth microdilution method. Format: functional.
Test [7] has as its system Klebsiella pneumoniae. As to the kind of experiment: Antibacterial activity against Klebsiella pneumoniae expressing ESBL by broth microdilution method. The class given is functional.
Test [8] has as its system Klebsiella pneumoniae. As to the kind of experiment: Antibacterial activity against Klebsiella pneumoniae expressing defined beta-lactamase by broth microdilution method. The class given is functional.
Test [9] relates to Pseudomonas aeruginosa. Nature of the test: Antibacterial activity against Pseudomonas aeruginosa expressing metallo-beta-lactamase by broth microdilution method. The class given is functional.
In test [10] the test system is Acinetobacter baumannii. As to the kind of experiment: Antibacterial activity against Acinetobacter baumannii AB-3167 by broth microdilution method. Format: functional.
Test [11] deals with Klebsiella pneumoniae. As to the kind of experiment: Antibacterial activity against Klebsiella pneumoniae 1487-07 by broth microdilution method. Format: functional.
Test [12] has as its system Pseudomonas aeruginosa. Nature of the test: microbe, parasite or virus in culture. The following applies: 1091-05.
Description: Antibacterial activity against Pseudomonas aeruginosa 1091-05 by broth microdilution method
For test [13], the system named is Klebsiella pneumoniae. Nature of the test: Antibacterial activity against Klebsiella pneumoniae 1000-02 by broth microdilution method. The class given is functional.
The subject of test [14] is Pseudomonas aeruginosa. As to the kind of experiment: Antibacterial activity against Pseudomonas aeruginosa 1042-06 by broth microdilution method. The class given is functional.

As usually defined, the MIC50 is the lowest concentration that inhibits either 50% of growth or 50% of the strains tested, depending on the study. A low value points to greater potency. A word on the MIC90: it is an inhibitory concentration at the 90% level, which refers to growth in some studies and to a panel of isolates in others. A high value points to weaker potency. `CO/N=C(\C(=O)N[C@@H]1C(=O)N2C(C(=O)[O-])=C(C[N+]3(C)CCCC3)CS[C@H]12)c1csc(N)n1`: the MIC50 is 8 µg/mL (≈ 16.6 µM) in [1]; 8 µg/mL (≈ 16.6 µM) in test [2]; 0.25 µg/mL (≈ 0.52 µM) in [3]; 64 µg/mL (≈ 133 µM) in test [4]; 64 µg/mL (≈ 133 µM) in test [5]; above 64 µg/mL in test [6]. Also, the MIC50 was 8 µg/mL (≈ 16.6 µM) in test [7], 4 µg/mL (≈ 8.32 µM) in test [8] and above 64 µg/mL in test [9]. For the same compound, the MIC90 in test [1] was above 64 µg/mL; in test [2], above 64 µg/mL; in [3] it was 4 µg/mL (≈ 8.32 µM); in [4], above 64 µg/mL; in test [5], above 64 µg/mL; in test [6], above 64 µg/mL. The MIC90 in [7], in test [8] and in test [9] was above 64 µg/mL in each case. Further, the MIC in test [10] was 2 µg/mL (≈ 4.16 µM); in [11], above 64 µg/mL; in test [12], 2 µg/mL (≈ 4.16 µM).

As to `CC(C)(O/N=C(\C(=O)N[C@@H]1C(=O)N(S(=O)(=O)O)[C@@H]1CNC(=O)c1cccc(O)c1O)c1csc(N)n1)C(=O)O`, the MIC in test [10] worked out at 16 µg/mL (≈ 27.3 µM); in test [11] it was 64 µg/mL (≈ 109 µM); in [13] it was 64 µg/mL (≈ 109 µM); in [14], 32 µg/mL (≈ 54.6 µM); in test [12], 16 µg/mL (≈ 27.3 µM).

Turning to `CC(C)(O/N=C(\C(=O)N[C@@H]1C(=O)N(S(=O)(=O)O)[C@@H]1CNC(=O)c1[nH]ccc(=O)c1O)c1csc(N)n1)C(=O)O`, the MIC is 32 µg/mL (≈ 54.5 µM) in [10]; 64 µg/mL (≈ 109 µM) in test [11]; 32 µg/mL (≈ 54.5 µM) in test [13]; above 64 µg/mL in [14]; 32 µg/mL (≈ 54.5 µM) in [12].

With `NCCO/N=C(\C(=O)N[C@@H]1C(=O)N(S(=O)(=O)O)[C@@H]1CNC(=O)NCc1cc(=O)c(O)cn1O)c1csc(N)n1`, the MIC in [10] is 4 µg/mL (≈ 6.78 µM); in test [11] it was above 64 µg/mL; in test [13], above 64 µg/mL; in [14], above 64 µg/mL; in test [12] it was 4 µg/mL (≈ 6.78 µM).

For `CC(C)(O/N=C(\C(=O)N[C@@H]1C(=O)N(S(=O)(=O)O)[C@@H]1CNC(=O)c1cc(=O)c(O)c[nH]1)c1csc(N)n1)C(=O)O`, the MIC was 0.125 µg/mL (≈ 0.213 µM) in [10], 0.5 µg/mL (≈ 0.851 µM) in test [13], 0.5 µg/mL (≈ 0.851 µM) in test [14] and 0.125 µg/mL (≈ 0.213 µM) in test [12].

For the compound `COn1cc(O)c(=O)cc1C(=O)NC[C@@H]1[C@H](NC(=O)/C(=N\OC(C)(C)C(=O)O)c2csc(N)n2)C(=O)N1S(=O)(=O)O`, the MIC amounted to 1 µg/mL (≈ 1.62 µM) in test [10]; 8 µg/mL (≈ 13 µM) in test [11]; 1 µg/mL (≈ 1.62 µM) in test [13]; 4 µg/mL (≈ 6.48 µM) in [14]; 1 µg/mL (≈ 1.62 µM) in test [12].

With `Cn1cc(O)c(=O)cc1C(=O)NC[C@@H]1[C@H](NC(=O)/C(=N\OC(C)(C)C(=O)O)c2csc(N)n2)C(=O)N1S(=O)(=O)O`, the MIC in test [10], in test [11], in test [14] and in test [12] was 4 µg/mL (≈ 6.65 µM) each time.

For the compound `CC(C)(O/N=C(\C(=O)N[C@@H]1C(=O)N(S(=O)(=O)O)[C@@H]1CNC(=O)c1cc(=O)c(O)cn1CC(=O)O)c1csc(N)n1)C(=O)O`, the MIC came to 1 µg/mL (≈ 1.55 µM) in test [10]; 4 µg/mL (≈ 6.2 µM) in [11]; 0.25 µg/mL (≈ 0.387 µM) in [13]; 2 µg/mL (≈ 3.1 µM) in test [14]; 1 µg/mL (≈ 1.55 µM) in [12].

As for `CNn1cc(O)c(=O)cc1C(=O)NC[C@@H]1[C@H](NC(=O)/C(=N\OC(C)(C)C(=O)O)c2csc(N)n2)C(=O)N1S(=O)(=O)O`, the MIC in test [10] was found to be 2 µg/mL (≈ 3.24 µM); in [11] it was 8 µg/mL (≈ 13 µM); in test [13], 0.5 µg/mL (≈ 0.811 µM); in test [14], 8 µg/mL (≈ 13 µM); in [12], 2 µg/mL (≈ 3.24 µM).

Turning to `CC(C)(O/N=C(\C(=O)N[C@@H]1C(=O)N(S(=O)(=O)O)[C@@H]1CNC(=O)c1cc(=O)c(O)co1)c1csc(N)n1)C(=O)O`, the MIC in test [10] turned out to be 8 µg/mL (≈ 13.6 µM); in [11] it was 64 µg/mL (≈ 109 µM); in test [13], 32 µg/mL (≈ 54.4 µM); in test [14], 64 µg/mL (≈ 109 µM); in test [12], 8 µg/mL (≈ 13.6 µM).

For `Nc1nc(/C(=N/OC2(C(=O)O)CCCC2)C(=O)N[C@@H]2C(=O)N(S(=O)(=O)O)[C@@H]2CNC(=O)NCc2cc(=O)c(O)cn2O)cs1`, the MIC was determined as 0.125 µg/mL (≈ 0.19 µM) in test [10]; 0.5 µg/mL (≈ 0.759 µM) in test [11]; 0.25 µg/mL (≈ 0.38 µM) in test [13]; 1 µg/mL (≈ 1.52 µM) in test [14]; 0.25 µg/mL (≈ 0.38 µM) in [12].

As for `Nc1nc(/C(=N/OC2(C(=O)O)CCCCC2)C(=O)N[C@@H]2C(=O)N(S(=O)(=O)O)[C@@H]2CNC(=O)NCc2cc(=O)c(O)cn2O)cs1`, the figures for the MIC in test [11], in [14] and in test [12] were 4 µg/mL (≈ 5.95 µM), 8 µg/mL (≈ 11.9 µM) and 1 µg/mL (≈ 1.49 µM), respectively.

As for `Nc1nc(/C(=N/OCCCC(=O)O)C(=O)N[C@@H]2C(=O)N(S(=O)(=O)O)[C@@H]2CNC(=O)NCc2cc(=O)c(O)cn2O)cs1`, the MIC is 0.5 µg/mL (≈ 0.79 µM) in test [10]; above 64 µg/mL in [11]; 32 µg/mL (≈ 50.6 µM) in test [13]; 8 µg/mL (≈ 12.6 µM) in [14]; 0.5 µg/mL (≈ 0.79 µM) in test [12].
